Experimental data reported in patent US7615361B2, “Toxicity screening methods” (Ceetox, Inc., priority 2006, dated 2009).

Assays:
Intracellular ATP levels = format: cell-based, rat; settings: rat, H4IIE, 24 HR exposure, read-out: ATP TC50
Procedure, shortened: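 Rat hepatoma H4IIE cells exposed to compound in complete culture medium, n=3-7 per group. ATP measured by luciferin-luciferase luminescence after lysis with ATPase-inhibiting reagent, quantified against an ATP calibration curve as pmoles ATP/million cells. Results expressed as percent of control from background-corrected luminescence.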

[1] = MemTox membrane leakage (AK / α-GST); format: cell-based, rat; settings: rat, H4IIE, 24 HR exposure, read-out: MemTox TC50
Procedure, shortened: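 H4IIE rat hepatoma cells were exposed to compound diluted in complete culture medium. Leakage of adenylate kinase (luminescence) and/or α-GST (ELISA, 450/650 nm) was measured in the medium collected at the end of exposure. Percent live cells was computed relative to 1 mM digitonin-treated maximum release, as means of n=3-7.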

rat cardiomyocytes = assay: Membrane lipid peroxidation (8-isoprostane ELISA); format: cell-based; settings: CM, 24 HR
Procedure, shortened: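 Neonatal rat cardiomyocytes exposed to the test compound, then cells or supernatant harvested for biochemical analysis of oxidative stress. Values are means of each exposure group (n=3-7).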

MTT reduction [2] = format: cell-based, rat; settings: rat cardiomyocytes (CM), 24 HR exposure, read-out: MTT TC50
Procedure, shortened: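 Cardiomyocytes from neonatal rats were exposed to the compound and cell function was monitored by tetrazolium (MTT) dye reduction. Values are group means over n=3-7.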

H4IIE cells = assay: Membrane lipid peroxidation (8-isoprostane ELISA); format: cell-based, rat; settings: H4IIE, 24 HR
Procedure, shortened: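 Rat hepatoma H4IIE cells exposed to test compound prepared in complete culture medium; cells or supernatant harvested for oxidative-stress endpoints. Camptothecin and rotenone served as positive controls; group means from n=3-7.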

[3] = Intracellular total glutathione (GSH); format: cell-based, rat; settings: rat, CM, 24 HR, read-out: Total GSH TC50
Procedure, shortened: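 Intracellular total glutathione serves as an oxidative-stress marker in neonatal rat cardiomyocytes exposed to compound in vitro. Cells were harvested for biochemical analysis, and values are means of each exposure group (n=3-7).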

[4] = Cell number (propidium iodide); format: cell-based, rat; settings: rat, H4IIE, 24 HR exposure, read-out: Cell Number TC50
Procedure, shortened: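 Rat hepatoma H4IIE cells exposed to compound in complete medium, then lysed with Triton X-100 containing propidium iodide; fluorescence read at 540/610 nm. Blank-subtracted RFU expressed as percent of untreated control cells, means of n=3-7.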

P-glycoprotein (PgP) = P-glycoprotein (PgP) binding: MTT with and without cyclosporin A; format: cell-based, rat; settings: H4IIE 24 HR; for % Control (Compound + CSA) / % Control (Compound): MTT, 50 μM; for % Control (Compound + CSA): with cyclosporin A; for % Control (Compound): without CSA
Protocol: Several antiviral drugs are substrates for P-glycoprotein transporter (PgP).
P-glycoprotein (PgP) transport proteins are expressed in the bile canalicular membrane of normal liver. However, in neoplastic cells it is not uncommon to have expression of this transporter system in the plasma membrane. […] The existence of these transporters was evaluated with the Calcein-AM assay and with known substrates of PgP.

MTT reduction [5] = format: cell-based, rat; settings: rat, H4IIE, 24 HR exposure, read-out: MTT TC50
Procedure, shortened: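 Rat hepatoma H4IIE cells exposed to compound prepared in complete culture medium, with tetrazolium dye (MTT) reduction used as a mitochondrial-function read-out of cytotoxicity. Values are means of each exposure group (n=3-7).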

SMILES	CC50 at 24 h (Intracellular ATP levels; H4IIE rat hepatoma cells) [µM]	CC50 at 24 h ([1]; H4IIE rat hepatoma cells) [µM]	Membrane Lipid Peroxidation (rat cardiomyocytes)	CC50 at 24 h (MTT reduction [2]; neonatal rat cardiomyocytes) [µM]	Membrane Lipid Peroxidation (H4IIE cells)	CC50 at 24 h ([3]; neonatal rat cardiomyocytes) [µM]	CC50 at 24 h ([4]; H4IIE rat hepatoma cells) [µM]	% Control (Compound + CSA) (P-glycoprotein (PgP)) [%]	% Control (Compound) (P-glycoprotein (PgP)) [%]	% Difference (P-glycoprotein (PgP); 1-20% low, 20-50% moderate, 50-100% high PgP interaction) [%]	CC50 at 24 h (MTT reduction [5]; H4IIE rat hepatoma cells) [µM]	CC50 at 24 h (Intracellular ATP levels) [µM]	CC50 at 24 h [1] [µM]	CC50 at 24 h (MTT reduction [2]) [µM]	CC50 at 24 h [3] [µM]	CC50 at 24 h [4] [µM]	CC50 at 24 h (MTT reduction [5]) [µM]
COc1cccc2c1C(=O)c1c(O)c3c(c(O)c1C2=O)C[C@@](O)(C(=O)CO)C[C@@H]3O[C@H]1C[C@H](N)[C@H](O[C@@H]2CCCCO2)[C@H](C)O1 [PIRARUBICIN, pirarubicin]	8	50	0	7	0	6	8	33.6	51.9	35.2	16						
C=C(C)[C@H]1Cc2c(ccc3c2O[C@@H]2COc4cc(OC)c(OC)cc4[C@@H]2C3=O)O1 [ROTENONE, Rotenone]			3 (3 = Concentration related increase with a maximum value ≧30 pg/mL)		2 (2 = Concentration related increase with maximum values ≧15 pg/mL)			0.0	0.0			0.04	100	33	7	0.04	0.07
